Source: EPA's ToxValDB 9.5 (doi:10.2903/j.efsa.2017.4852)

Experiments:
Chrysoperla externa = experiment: LR50; higher = less toxic; conditions: not reported; mortality
Mus musculus = conditions: acute; oral; mortality
Folsomia candida = conditions: chronic/long-term; reproduction
Tagia sp. = conditions: chronic/long-term; reproduction
Bibionidae = conditions: chronic/long-term; duration: 28 days
Apis mellifera = conditions: acute, mortality
Anas platyrhynchos = conditions: acute; oral; unspecified; mortality
Oryctolagus sp. = conditions: developmental; development

Q: With CC#Cc1cc(C)nc(Nc2ccccc2)n1 [Mepanipyrim] as the compound, how does the LR50 (Chrysoperla externa) read?
A: > 500 g/ha

Q: What about the LD50 (Colinus virginianus; acute, oral, mortality) of the same compound?
A: > 2250 mg/kg-day

Q: And the NOEC (Colinus virginianus; reproduction developmental, reproduction)?
A: 100 mg/kg-day

Q: What about the LD50 (Rattus norvegicus; acute, oral, mortality) of the same compound?
A: > 2650 mg/kg-day

Q: What about the LOAEL (Rattus norvegicus; chronic, morphology) of the same compound?
A: 2.45 mg/kg-day

Q: And the LOAEL (Rattus norvegicus; reproduction developmental, histopathology: nonneoplastic)?
A: 2.45 mg/kg-day

Q: What about the LD50 (Mus musculus) of the same compound?
A: > 2650 mg/kg-day

Q: And the NOEC (Folsomia candida)?
A: 58.4 mg/kg

Q: What about the NOEC (Tagia sp.) of the same compound?
A: 113 mg/kg

Q: What about the NOEC (Bibionidae) of the same compound?
A: 4.67 mg/kg

Q: What about the LD50 (Apis mellifera; dermal) of the same compound?
A: > 80 µg/piece

Q: What about the LD50 (Apis mellifera; oral, unspecified) of the same compound?
A: > 50 µg/piece

Q: And the LD50 (Anas platyrhynchos)?
A: > 2250 mg/kg-day

Q: What about the NOAEL (Oryctolagus sp.) of the same compound?
A: 10 mg/kg-day
